Results reported in publication PMC8171083, “A nano-predator of pathological MDMX construct by clearable supramolecular gold(I)-thiol-peptide complexes achieves safe and potent anti-tumor activity” (Theranostics, 2021).
Where a SMILES comes first, the peptide text is derived from it. The star is where a group is joined. Cbz = O=C(OCc1ccccc1)*

system: WERI-Rb-1 cells; assay: Cell uptake analysis by flow cytometry (FITC-labelled); assay type: cell-based; conditions: pH 6.5; 3 mM Amiloride, 2 μM cytochalasin D

| Structure (SMILES) | Effect of preincubation on Nano-FITCMG@PSI internalization |
| --- | --- |
| N=C(N)NC(=O)c1nc(Cl)c(N)nc1N [Amiloride] | suppressed |
| C=C1[C@@H](C)[C@H]2[C@H](Cc3ccccc3)NC(=O)[C@]23[C@H](OC(C)=O)/C=C/[C@@](C)(O)C(=O)[C@@H](C)C/C=C/[C@H]3[C@@H]1O [cytochalasin D] | suppressed |

target: T1, MDMX (Homo sapiens, UniProt O15151); assay: MDMX degradation by western blot; assay type: cell-based; conditions: 200 nM Nano-MP@PSI, 12-hour preincubation of inhibitor
T1 construct: endogenous in cells; host or cells: WERI-Rb-1 (ATCC)
T1 sequence (O15151 1-490): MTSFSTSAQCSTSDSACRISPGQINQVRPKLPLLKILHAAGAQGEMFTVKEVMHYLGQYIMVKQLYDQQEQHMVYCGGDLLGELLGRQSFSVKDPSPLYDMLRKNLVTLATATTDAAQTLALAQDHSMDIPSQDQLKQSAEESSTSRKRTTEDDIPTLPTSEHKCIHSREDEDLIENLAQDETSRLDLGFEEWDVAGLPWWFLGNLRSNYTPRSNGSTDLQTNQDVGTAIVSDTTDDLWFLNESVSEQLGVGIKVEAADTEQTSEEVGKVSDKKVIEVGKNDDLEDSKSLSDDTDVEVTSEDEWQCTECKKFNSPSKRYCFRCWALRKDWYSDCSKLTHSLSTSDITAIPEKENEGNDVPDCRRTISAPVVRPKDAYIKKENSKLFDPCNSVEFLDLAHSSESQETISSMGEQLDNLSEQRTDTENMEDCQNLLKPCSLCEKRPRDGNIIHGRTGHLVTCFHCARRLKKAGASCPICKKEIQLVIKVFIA
From the text: The protein fraction of cell lysates was resolved by 10%SDS/PAGE before membrane
transfer. Primary antibodies were from Santa Cruz Biotechnology (p53), Abcam (p73), Proteintech
(MDMX，p21, GAPDH); secondary antibodies conjugated with horseradish peroxidase were from […]

| Structure (SMILES) | Effect on MDMX degradation by Nano-MP@PSI |
| --- | --- |
| CC(C)C[C@@H](C=O)NC(=O)[C@H](CC(C)C)NC(=O)[C@H](CC(C)C)NC(=O)OCc1ccccc1 [MG132] (Cbz-Leu-Leu-Leu-aldehyde) | totally inhibits |
| Cl.N [NH4Cl] | neither a chloroquine (a lysosome inhibitor) nor NH4Cl (an autophagy inhibitor) had any effect |
| CCOC(=O)c1ccc(N2NC(=O)/C(=C/c3ccc([N+](=O)[O-])o3)C2=O)cc1 [PYR41] | totally inhibits |
| CCN(CC)CCCC(C)Nc1ccnc2cc(Cl)ccc12 (stereo not drawn) [chloroquine] | neither a chloroquine (a lysosome inhibitor) nor NH4Cl (an autophagy inhibitor) had any effect |
